Measurements published in ChEMBL document CHEMBL1158859, “Antiprotozoal compounds from Asparagus africanus” (J Nat Prod, 1997).

Columns and labels:
Leishmania major = assay: Antileishmanial activity against Leishmania major promastigotes assessed as inhibition of [3H]thymidine uptake after 18 hrs by scintillation counting; assay type: functional, organism-based
[1] = Inhibition of phytohemagglutininin A-induced human lymphocyte proliferation assessed as radiolabeled [14C]thymidine uptake; assay type: cell-based
Plasmodium falciparum [2] = assay: Antiplasmodial activity against chloroquine-resistant Plasmodium falciparum V1/S after 48 hrs by [3H]hypoxanthine uptake; assay type: functional, organism-based
Plasmodium falciparum [3] = assay: Antiplasmodial activity against Plasmodium falciparum schizonts assessed as [3H]hypoxanthine incorporation by liquid scintillation counting; assay type: functional, organism-based; details: Dd2
[4] = Selectivity index, ratio of IC50 for human lymphocyte to IC50 for Leishmania major
[5] = Selectivity index, ratio of IC50 for human lymphocyte to IC50 for chloroquine-resistant Plasmodium falciparum Dd2
[6] = Selectivity index, ratio of IC50 for human lymphocyte to IC50 for chloroquine-susceptible Plasmodium falciparum K39
[7] = Selectivity index, ratio of IC50 for human lymphocyte to IC50 for chloroquine-resistant Plasmodium falciparum V1/S
Plasmodium falciparum [8] = assay: Antiplasmodial activity against chloroquine-susceptible Plasmodium falciparum 3D7 after 24 hrs by [3H]hypoxanthine uptake; assay type: functional, organism-based
[9] = Selectivity index, ratio of IC50 for human lymphocyte to IC50 for chloroquine-susceptible Plasmodium falciparum 3D7
Plasmodium falciparum [10] = assay: Antiplasmodial activity against chloroquine-sensitive Plasmodium falciparum K39 after 48 hrs by [3H]hypoxanthine uptake; assay type: functional, organism-based
Plasmodium falciparum [11] = assay: Antiplasmodial activity against chloroquine-resistant Plasmodium falciparum Dd2 after 24 hrs by [3H]hypoxanthine uptake; assay type: functional, organism-based

Question: With `C[C@@H]1CC[C@@]2(OC1)O[C@H]1C[C@H]3C4=CCC5=CC(=O)[C@@H](O)C[C@]5(C)[C@H]4C[C@H](O)[C@]3(C)[C@H]1[C@@H]2C` [MUZANZAGENIN] as the compound, how does the Activity (Leishmania major) read?
Answer: Its Activity is “Dose-dependent effect”.

Question: What about the IC50 (Leishmania major) of the same compound?
Answer: The IC50 was 70 µM.

Question: What about the IC50 [1] of the same compound?
Answer: Its IC50 is 129 µM.

Question: And the Activity (Plasmodium falciparum [2])?
Answer: The Activity was “Dose-dependent effect”.

Question: And the IC50 (Plasmodium falciparum [2])?
Answer: Its IC50 is 163 µM.

Question: What about the Activity (Plasmodium falciparum [3]) of the same compound?
Answer: Its Activity is “Dose-dependent effect”.

Question: What about the IC50 (Plasmodium falciparum [3]) of the same compound?
Answer: Its IC50 is 16 µM.

Question: And the “Ratio IC50” value [4]?
Answer: The value was 1.8.

Question: What about the “Ratio IC50” value [5] of the same compound?
Answer: Its value is 8.

Question: What about the “Ratio IC50” value [6] of the same compound?
Answer: Its value is 2.1.

Question: And the “Ratio IC50” value [7]?
Answer: Its value is 0.8.

Question: And the Activity (Plasmodium falciparum [8])?
Answer: Its Activity is “Dose-dependent effect”.

Question: And the IC50 (Plasmodium falciparum [8])?
Answer: The IC50 was 23 µM.

Question: And the “Ratio IC50” value [9]?
Answer: The value was 5.6.

Question: And the Activity (Plasmodium falciparum [10])?
Answer: Its Activity is “Dose-dependent effect”.

Question: What about the IC50 (Plasmodium falciparum [10]) of the same compound?
Answer: Its IC50 is 61 µM.

Question: Which results are given for `C=C[C@H](/C=C\c1ccc(O)cc1)c1ccc(O)cc1` [NYASOL]?
Answer: IC50 (Leishmania major): 12 µM; IC50 [1]: 200 µM; IC50 (Plasmodium falciparum [3]): 12 µM; Ratio IC50 [4]: 4.1; IC50 (Plasmodium falciparum [11]): 49 µM; Ratio IC50 [5]: 16.7; IC50 (Plasmodium falciparum [8]): 12 µM; Ratio IC50 [9]: 16.7
